Experimental data: patent US20090313718A1, “POLYNUCLEOTIDES ENCODING CARYOPHYLLENE SYNTHASE AND USES THEREOF” (priority 2006, published 2009)
“Also recorded” adds a separate entry of the source. Like-named read-outs stand apart in the source and are kept apart here.

Legend:
Heterorhabditis megidis = assay: Belowground six-arm olfactometer assay; format: in vivo
Procedure: 9. Bioassays • Attraction of the nematode Heterorhabditis megidis toward (E)-β-caryophyllene was tested with belowground six-arm olfactometer assays (Rasmann et al., 2005). The apparatus consisted of a central glass chamber with six evenly distributed side arms that connect it to six glass pots. The entire system was filled with moist sand (10% water). An aliquot of 0.2 μl of authentic (E)-β-caryophyllene (98% pure; Sigma-Aldrich) was injected into one of the glass pots and the five untreated pots were used as controls. About 2000 H. megidis were released in a drop of water in the centre of the central arena. […] On the next day, recovered nematodes were counted. • To test the above ground role of (E)-β-caryophyllene in attracting herbivore enemies, S. littoralis caterpillars and the solitary endoparasitoid Cotesia marginiventris were reared as described by Turlings et al. (2004). […] The experiment was repeated seven times. • The behavioral responses of parasitoids and entomopathogenic nematodes to (E)-β-caryophyllene were analyzed with a log-linear model corrected for the expected distribution within the olfactometer (Turlings et al. 2004). The model was fitted by maximum quasilikelihood estimation in the software package R (Version 2.4.0) and its adequacy was assessed through likelihood ratio statistics and examination of residuals. […]

Cotesia marginiventris = assay: Four-arm olfactometer assay with parasitoid females; format: in vivo; conditions: odor vs pure air
Procedure: FIG. 9 provides evidence that the parasitic wasp Cotesia marginiventris is attracted by (E)-β-caryophyllene after previous oviposition experience. Responses of the parasitic wasp Cotesia marginiventris to (E)-β-caryophyllene: The attraction of parasitoid females to a pure standard of (E)-β-caryophyllene was tested in a four-arm olfactometer. Two groups of parasitoids were tested: naïve wasps and wasps with a previous oviposition experience on host larvae in the presence of (E)-β-caryophyllene. The parasitoids were tested in groups of six (n=14).
9. […] On the next day, recovered nematodes were counted. • To test the above ground role of (E)-β-caryophyllene in attracting herbivore enemies, S. littoralis caterpillars and the solitary endoparasitoid Cotesia marginiventris were reared as described by Turlings et al. (2004). […] The experiment was repeated seven times. • The behavioral responses of parasitoids and entomopathogenic nematodes to (E)-β-caryophyllene were analyzed with a log-linear model corrected for the expected distribution within the olfactometer (Turlings et al. 2004). The model was fitted by maximum quasilikelihood estimation in the software package R (Version 2.4.0) and its adequacy was assessed through likelihood ratio statistics and examination of residuals. […]

[1] = system: adult females of D. v. virgifera; conditions: in vivo; cited from earlier work
pathogens = conditions: cited from earlier work
TPS23-Del [2] = biological target: T1, TPS23-Del (Zea mays, UniProt B2C4D0); assay: Kinetic and metal ion cofactor assay with purified TPS23 and tritium-labeled FPP
T1 sequence (B2C4D0 1-547): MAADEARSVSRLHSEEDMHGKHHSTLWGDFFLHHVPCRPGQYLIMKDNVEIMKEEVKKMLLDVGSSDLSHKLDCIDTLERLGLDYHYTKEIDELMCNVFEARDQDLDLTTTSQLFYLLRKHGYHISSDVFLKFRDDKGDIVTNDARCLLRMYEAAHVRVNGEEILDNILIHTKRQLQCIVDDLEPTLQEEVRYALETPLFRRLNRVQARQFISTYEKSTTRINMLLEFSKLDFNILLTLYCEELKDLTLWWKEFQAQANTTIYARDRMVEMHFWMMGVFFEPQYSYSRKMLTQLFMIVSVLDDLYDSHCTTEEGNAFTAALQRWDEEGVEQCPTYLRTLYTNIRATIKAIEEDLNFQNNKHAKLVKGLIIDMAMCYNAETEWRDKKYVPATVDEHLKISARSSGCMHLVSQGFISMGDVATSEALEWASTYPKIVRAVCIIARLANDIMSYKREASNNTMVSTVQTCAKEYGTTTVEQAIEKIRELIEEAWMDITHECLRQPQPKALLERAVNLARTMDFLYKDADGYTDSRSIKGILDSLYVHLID
Procedure: (§1) The construct was introduced into the E. coli strain BL21 (DE3) and fully sequenced to avoid errors introduced by DNA amplification. Liquid cultures of the bacteria harboring the expression constructs were grown at 37° C. to an OD600 of 0.6. Then, isopropyl-β-thiogalactopyranoside was added to a final concentration of 1 mM, and the cultures were incubated for 20 hours at 18° C. The cells were collected by centrifugation and disrupted by a 4×30 s treatment with a sonicator (Bandelin UW2070) in chilled extraction buffer (50 mM Mopso, pH 7.0, with 5 mM MgCl2, 5 mM sodium ascorbate, 0.5 mM PMSF, 5 mM dithiothreitol and 10% (v/v) glycerol). The cell fragments were removed by centrifugation at 14,000 g and the supernatant was desalted into assay buffer (10 mM Mopso, pH 7.0, 1 mM dithiothreitol, 10% (v/v) glycerol) by passage through a Econopac 10DG column (BioRad, Hercules, Calif., USA). For kinetic studies the His-tagged enzyme was further purified on a nickel-nitrilotriacetate agarose column (Qiagen, Heidelberg, Germany) according to manufacturer's instructions.
(§2) Assay for Terpene Synthase Activity • To determine the catalytic activity of the terpene synthase TPS23, enzyme assays containing 50 μl of the bacterial extract and 50 μl assay buffer with 10 μM (E,E)-FPP, 10 mM MgCl2, 0.05 mM MnCl2, 0.2 mM NaWO4 and 0.1 mM NaF in a Teflon-sealed, screw-capped 1 ml GC glass vial were performed. […] The assay was overlaid with 1 ml pentane to trap volatile products and incubated for 20 min at 30° C. The reaction was stopped by mixing, and 0.5 ml of the pentane layer was taken for measurement of radioactivity by liquid scintillation counting in 2 ml Lipoluma cocktail (Packard Bioscience, Groningen, The Netherlands) using a Packard Tricarb 2300TR liquid scintillation counter (^3H efficiency=61%). […] Assay results are reported as the mean of three independent replicate assays, and each experiment was repeated 2-3 times with similar results. The Km values were determined using seven substrate concentrations with four repetitions each. […] The concentration of the purified protein was determined by the method of Bradford (1976) using the BioRad reagent with BSA as standard.
(§3) To determine the biochemical properties of TPS23-Del, the purified enzyme was incubated with tritium-labeled FPP and the assays performed under the appropriate conditions.

TPS23-Del [3] = biological target: T1, TPS23-Del; assay: Substrate specificity and product identification of recombinant TPS23 (SPME, GC-MS); format: biochemical, maize (Zea mays L.); parameters: For expression with a N-terminal 8×His tag the ORF of tps23 was amplified; 8xHis (N); made in house; host or cells: E. coli BL21 (DE3), vector pHIS8-3; conditions: recombinant His-tagged TPS23-Del from E. coli BL21 (DE3)
Procedure: as §1
Assay for Terpene Synthase Activity • To determine the catalytic activity of the terpene synthase TPS23, enzyme assays containing 50 μl of the bacterial extract and 50 μl assay buffer with 10 μM (E,E)-FPP, 10 mM MgCl2, 0.05 mM MnCl2, 0.2 mM NaWO4 and 0.1 mM NaF in a Teflon-sealed, screw-capped 1 ml GC glass vial were performed. A SPME (solid phase microextraction) fiber consisting of 100 μm Polydimethylsiloxane (SUPELCO, Belafonte, Pa., USA) was placed into the headspace of the vial for 1 h incubation at 30° C. […] Assay results are reported as the mean of three independent replicate assays, and each experiment was repeated 2-3 times with similar results. […] The concentration of the purified protein was determined by the method of Bradford (1976) using the BioRad reagent with BSA as standard.
Gas Chromatography • A Hewlett-Packard model 6890 gas chromatograph was employed with the carrier gas He at 1 ml min^−1, splitless injection (injector temperature—220° C.), a Chrompack CP-SIL-5 CB-MS column ((5%-phenyl)-methylpolysiloxane, 25 m×0.25 mm i.d.×0.25μ film thickness, Varian, USA) and a temperature program from 40° C. (3-min hold) at 5° C. min^−1 to 240° C. (3 min hold). The coupled mass spectrometer was a Hewlett-Packard model 5973 with a quadrupole mass selective detector, transfer line temperature—230° C., source temperature—230° C., quadrupole temperature—150° C., ionization potential—70 eV and a scan range of 40-350 atomic mass units. Products were identified by comparison of retention times and mass spectra with authentic reference compounds. […]

[4] = stored at −80° C.
[5] = substrate: CC(C)=CCC/C(C)=C/CC/C(C)=C/CO[P@@](=O)(O)OP(=O)(O)O; assay: purified protein, by the assay type; conditions: other: FPP as substrate, TPS23-Del heterologously expressed in E. coli
Procedure: as §1, §2, §3

[6] = read-out: Km of divalent metal ion cofactor, TPS23-Del heterologously expressed in E. coli

With C=C1CC/C=C(\C)CC[C@@H]2[C@@H]1CC2(C)C [(E)-β-caryophyllene] the “nematodes recovered from spiked arm compared to average of the five arms not spiked” value (Heterorhabditis megidis; 0.2 μl injected into one pot, 24 h after release of about 2000 H. megidis) was “Approximately twice”, the attraction of nematodes (Heterorhabditis megidis; six-arm olfactometer filled with moist sand, spiked arm vs five control arms) was “significantly larger number; also recorded: attracts” and the “attraction of experienced wasps” value (Cotesia marginiventris; females with previous oviposition experience on host larvae in the presence of (E)-β-caryophyllene) was “significant preference; also recorded: preferred air carrying (E)-β-caryophyllene to pure air”. For the same molecule, the “attraction of naïve wasps” value (Cotesia marginiventris; females without oviposition experience) was “did not show this preference; also recorded: not attracted”, the “attractiveness to adult females of D. v. virgifera” value [1] was “reported attractiveness” and the anti-microbial activity (pathogens) was “has anti-microbial activity”.

For CC(C)=CCC/C(C)=C/CC/C(C)=C/CO[P@@](=O)(O)OP(=O)(O)O [FPP, (E,E)-farnesyl diphosphate], the Km (TPS23-Del [2]; read-out: Km value for FPP, purified enzyme, tritium-labeled FPP) was 2.4 ± 0.4 µM.

For CC(C)=CCC/C(C)=C/CC/C(C)=C/CC/C(C)=C/COP(=O)(O)OP(=O)(O)O [GGPP, geranylgeranyl diphosphate], the acceptance as substrate (TPS23-Del [3]) was “does not accept; also recorded: did not accept”.

For CC(C)=CCC/C(C)=C/COP(=O)(O)OP(=O)(O)O [GPP, geranyl diphosphate], the acceptance as substrate (TPS23-Del [3]) was “does not accept; also recorded: did not accept”.

For [Mg+2] [Mg^2+], the “enzyme activity with divalent cation” value (TPS23-Del [2]; 10 mM) was “substantial activities” and the Km (TPS23-Del [2]; [6]) was 183 ± 34 µM.

With [Mn+2] [Mn^2+] the “enzyme activity with divalent cation” value (TPS23-Del [2]; 0.25 mM) was “substantial activities” and the Km (TPS23-Del [2]; [6]) was 28 ± 6 µM.

For CN1CCCCC1CCN1c2ccccc2Sc2ccc([S+](C)[O-])cc21 (stereo not shown) [TPS23-Del], the “time enzyme activity was stable” value [4] was “at least 1 month”.

B1: TPS23-Del (Zea mays) (protein)
chain: MAADEARSVSRLHSEEDMHGKHHSTLWGDFFLHHVPCRPGQYLIMKDNVEIMKEEVKKMLLDVGSSDLSHKLDCIDTLERLGLDYHYTKEIDELMCNVFEARDQDLDLTTTSQLFYLLRKHGYHISSDVFLKFRDDKGDIVTNDARCLLRMYEAAHVRVNGEEILDNILIHTKRQLQCIVDDLEPTLQEEVRYALETPLFRRLNRVQARQFISTYEKSTTRINMLLEFSKLDFNILLTLYCEELKDLTLWWKEFQAQANTTIYARDRMVEMHFWMMGVFFEPQYSYSRKMLTQLFMIVSVLDDLYDSHCTTEEGNAFTAALQRWDEEGVEQCPTYLRTLYTNIRATIKAIEEDLNFQNNKHAKLVKGLIIDMAMCYNAETEWRDKKYVPATVDEHLKISARSSGCMHLVSQGFISMGDVATSEALEWASTYPKIVRAVCIIARLANDIMSYKREASNNTMVSTVQTCAKEYGTTTVEQAIEKIRELIEEAWMDITHECLRQPQPKALLERAVNLARTMDFLYKDADGYTDSRSIKGILDSLYVHLID
With B1 the Km ([5]; 0.25 mM MnCl2) was 1.1 ± 0.3 µM and the Km ([5]; 10 mM MgCl2) was 3.7 ± 0.5 µM.
